Results: patent US20250109444A1, “DNA HYPOMETHYLATION AS A PREDICTIVE MARKER FOR CANCER THERAPY” (Fred Hutchison Cancer Center, priority 2023, published 2025)
Blank lines part the entries; values can stand above or below the compound they belong to.

Legend:
Format in all cases: cell-based
LNCaP cells [1] = assay: Cell viability of solvent vs SAMe treated LNCaP cells in response to AKTi (ipatasertib); details: prolonged treatment with methyl donor SAMe vs solvent
From the text: (§1) FIGS. 4A, 4B. Modulation of global DNA methylation changes the sensitivity to AKT inhibitors. (4A) Cell viability curves for solvent (circle) and SAMe (square) treated LNCaP cells. The difference in cell viability in response to AKTi (ipatasertib) treatment is shown. (4B) Decitabine (DAC) and GSK344862 results in sensitization.

[2] = Sensitization to AKT inhibitors by pharmacologically induced DNA hypomethylation (DNMT inhibitors); details: pharmacologically induced DNA hypomethylation with DNMT inhibitor
From the text: as §1

[3] = tested on: DHMC and non-DHMC cell lines; assay: Cell viability of DHMC and non-DHMC cancer cell lines treated with histone evicting anthracyclines; details: DHMC vs non-DHMC cell lines, wide spectrum of cancer cell lines
LNCaP cells [4] = assay: Co-treatment with EZH2 inhibitor and ipatasertib, cell viability; details: co-treatment with AKT inhibitor ipatasertib
From the text: (§2) FIGS. 5A-5C. […] Increased dependency on PRC2-mediated chromatin repression is observed with AKT inhibition, creating a therapeutic vulnerability. Co-treatment with AKTi and PRC2 inhibitors (such as EZH2 or EED inhibitors) results in synergistic effects.

MALME3 cells = assay: Co-treatment with EED inhibitor and ipatasertib
From the text: as §2

[5] = tested on: DHMC and non-DHMC cell lines; assay: Cell viability of DHMC and non-DHMC cancer cell lines treated with AKT inhibitors; details: DHMC vs non-DHMC cell lines, wide spectrum of cancer cell lines, in vitro
From the text: FIGS. 2A, 2B. […] (2A) Cell viability curves for DHMC (black) and non-DHMC (light gray) cell lines treated with 3 different AKT inhibitors (afuresertib, AZD5363, ipatasertib). (2B) IC50s for DHMCs (black) and non-DHMCs (gray).

Compound: C[S+](CC[C@H](N)C(=O)O)C[C@H]1O[C@@H](n2cnc3c(N)ncnc32)[C@H](O)[C@@H]1O (stereo partly drawn) [SAMe, S-Adenosylmethionine]
Change of sensitivity to AKTi (cell viability) (LNCaP cells [1]): decreases sensitivity to AKTi

Compound: CCc1c(C#N)c(SC(C(N)=O)c2ccccc2)nc(N(C)C)c1C#N (stereo not drawn) [GSK-3484862]
Change of sensitivity to AKT inhibitors (AKTi) [2]: increases sensitivity to AKT inhibitors

Sensitivity of DHMC compared to non-DHMC (cell viability curves, IC50s) [3]: increased sensitivity
Compound: dimethyl-doxorubicin

Compound: CC[C@@]1(O)C[C@H](O[C@H]2C[C@H](N(C)C)[C@H](O[C@H]3C[C@H](O)[C@H](O[C@H]4CCC(=O)[C@H](C)O4)[C@H](C)O3)[C@H](C)O2)c2c(cc3c(c2O)C(=O)c2c(O)cccc2C3=O)[C@H]1C(=O)OC [aclarubicin]
Sensitivity of DHMC compared to non-DHMC (cell viability curves, IC50s) [3]: increased sensitivity

Compound: CC[C@H](C)n1cc(C)c2c(C(=O)NCc3c(C)cc(C)[nH]c3=O)cc(-c3ccc(N4CCNCC4)nc3)cc21 [GSK126]
Interaction with ipatasertib (cell viability) (LNCaP cells [4]): synergistic reduction in cell viability

Compound: CN(C)[C@H]1CN(C2CCc3cccc(F)c32)C[C@@H]1c1ccc(N2CCN(S(C)(=O)=O)CC2)cc1 (stereo partly drawn) [A395]
Interaction with ipatasertib (MALME3 cells): Synergistic interaction

Sensitivity of DHMC compared to non-DHMC (cell viability curves, IC50s) [5]: increased sensitivity
Compound: NC1(C(=O)N[C@@H](CCO)c2ccc(Cl)cc2)CCN(c2nc[nH]c3nccc2-3)CC1 [AZD5363, Capivasertib]

Sensitivity of DHMC compared to non-DHMC (cell viability curves, IC50s) [5]: increased sensitivity
Compound: Cn1ncc(Cl)c1-c1cc(C(=O)N[C@H](CN)Cc2cccc(F)c2)sc1Cl [afuresertib, Afuresertib]

Sensitivity of DHMC compared to non-DHMC (cell viability curves, IC50s) [5]: increased sensitivity
Compound: CC(C)NC[C@@H](C(=O)N1CCN(c2ncnc3c2[C@H](C)C[C@H]3O)CC1)c1ccc(Cl)cc1 [ipatasertib, Ipatasertib]
